The target of one data set is PTEN (Homo sapiens, UniProt P60484). As to conditions: in vitro, known inhibitors; read-out: IC50 for inhibition of PTEN; cited from earlier work.
The test system of data set [1] is dormant primordial follicles of neonatal ovaries. Put plainly: Transient in vitro exposure of neonatal mouse ovaries to PTEN inhibitor, kidney capsule transplantation into ovariectomized FSH-treated hosts, histology (Examples 2 and 3). In kind it is in vivo. Here is the method: Ovaries fixed for at least 24 h are dehydrated, embedded in paraffin, and serially sectioned at 5 μm intervals. The sections are mounted on glass slides and stained with Mayers hematoxylin and eosin. Follicles are counted using the dissector and fractionator principles (see Mayhew et al. (1991) Exp Physiol 76:639-65). Every fifth section of each ovary is used for analysis. Follicle stages are determined based on the classification used by Flaws et al. (1997) Biol. Reprod. 57:1233-1237. Follicles are assessed blindly and confirmed by two investigators. Data is expressed as percentage of follicle per ovary.
Follicles are identified as healthy if they contained an intact oocyte, organized granulosa and thecal cell layers, and no pyknotic bodies. Follicles are considered atretic if they contain a degenerating oocyte, disorganized granulosa cells with pyknotic nuclei or apoptotic bodies. Follicles will be scored as “primordial” if they contain an intact oocyte with a visible nucleolus surrounded by a single layer of fusiform-shaped granulosa cells. Follicles are scored as “primary” if they consist of an intact, enlarged oocyte with a visible nucleolus and a single layer of cuboidal granulosa cells. Follicles are scored as preantral if they contain an oocyte with a visible nucleolus and more than one layer of granulosa or thecal cells. To obtain an estimate of the total number of follicles per ovary, the number of primordial, primary, and preantral follicles are multiplied by 5 to account for the fact that every fifth section was used for analyses. Statistical analysis of follicle number is performed using Sigmastat statistical software v.2 (Jandel Corporation, San Rafael, Calif., USA).
Transient incubation of neonatal ovaries in vitro with bpV(pic) may avoid the adverse side effects of the PTEN inhibitor in vivo to allow a tissue-specific action of the inhibitor. After treatment using the PTEN inhibitor, ovaries are transplanted into adult hosts. To facilitate follicle growth, adult recipients are ovariectomized to increase endogenous gonadotropin levels. […]

In data set [2] the test system is human primordial follicles. Put plainly: Human follicle activation: cortical cubes treated in vitro, xeno-transplanted into kidney capsule of ovariectomized SCID mice, follicle counting. In kind it is in vivo. Here is the method:
(§1) Informed consent from the patient and approval from the Human Subject Committee of Akita University were obtained. Ovarian cortex was isolated and cut into small cubes (˜1 mm^3). After treatment of cortical cubes for 1 h with bpV(pic), some samples were used for immunohistochemical staining for Foxo3. Some ovarian cubes were also cultured in MEM-a medium containing 10% human serum albumin (Mitsubishi Tanabe Pharma Corp, Osaka, Japan), 1% antibiotic/antimycotic solution (Invitrogen), and 0.3 IU/ml FSH. Pairs of cortical cubes were treated with bpV(pic) ([…]) or saline for 24 h before xeno-transplantation into each side of the kidney capsule of ovariectomized, immune-deficient SCID mice. An i.p. injection of antibiotic (4 μg/g body weight; gentamicin; Invitrogen) was given while animals were anesthetized by 2,2,2-tribromoethanol (0.4 mg/g body weight; avertin; Sigma). Three day after transplantation, animals were treated i.p. with FSH (1 IU/animal) every 48 h for 24 weeks. At 36 h before sample retrieval, hCG (20 IU/animal) was injected subcutaneously. Ovarian grafts were recovered for histological analyses and follicle counting.

The subject of data set [3] is Foxo3 nuclear export in primordial oocytes. As to the kind of experiment: Foxo3 nuclear export in primordial follicles of human ovarian cortical cubes. In kind it is cell-based. As to conditions: 1 h treatment, 100 uM. How it is done:
as §1

The next data set deals with PTP. Particulars: read-out: IC50 as PTP inhibitor; cited from earlier work.
Where [4] appears, read: antral follicles of four grafts, after hCG.

Sequence of PTEN (P60484 whole entry): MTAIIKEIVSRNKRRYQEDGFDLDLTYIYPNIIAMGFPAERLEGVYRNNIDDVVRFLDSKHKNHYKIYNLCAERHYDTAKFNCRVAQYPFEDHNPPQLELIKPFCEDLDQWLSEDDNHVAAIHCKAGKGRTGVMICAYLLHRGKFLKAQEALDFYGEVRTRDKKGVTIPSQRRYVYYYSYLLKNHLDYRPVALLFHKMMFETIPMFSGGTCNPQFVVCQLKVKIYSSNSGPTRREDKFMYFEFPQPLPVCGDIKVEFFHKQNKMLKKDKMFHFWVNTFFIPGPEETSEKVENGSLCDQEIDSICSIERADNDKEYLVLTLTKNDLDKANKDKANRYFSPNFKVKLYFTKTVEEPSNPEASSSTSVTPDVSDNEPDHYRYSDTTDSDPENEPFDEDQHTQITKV

With `OO.OO.[K+].[OH-].[V].c1cnc2c(c1)ccc1cccnc12` [potassium bisperoxo (1,10-phenanthroline)oxovanadate (V)], the half-inhibitory concentration (IC50) – broadly, the concentration needed to halve the response being measured – at PTEN was 38 nM.

Turning to `O.O.O=C([O-])c1ccccn1.OO.OO.[K+].[K+].[OH-].[V]` [bpV(pic), dipotassium bisperoxo(picolinato)oxovanadate (V)], the “ovarian size as compared with control ovaries” value in data set [1] (100 μM for 24 h in vitro, twelve days after transplantation) was “clear increases in sizes”. Besides, in data set [1] (250 uM for 6 h in vitro, day 3 Balb/c ovaries, transplanted, FSH 12 days, preliminary analysis, three pairs of ovaries), the “decrease of the percentage of primordial (Pmd) follicles as compared to controls” value was 60%. Further, in data set [1] (6 h in vitro exposure, 15 days after transplantation, hCG 8 h), the “effect on follicle development and nuclear maturation of the preovulatory oocyte” value was “did not cause detrimental effects”. In addition, in data set [2] (24 h treatment (100 mM), after transplantation, FSH 24 weeks), the “follicles that left the dormant primordial pool and developed into larger follicles” value is recorded as 89%. Also, in data set [2] (24 h treatment, 6 months after xeno-transplantation), the “graft size as compared with controls” value is reported as “major increases in graft sizes”. The “increases in the number of secondary and antral follicles” value in data set [2] (24 h treatment, after xeno-transplantation) is listed as roughly 4 fold. Moreover, in data set [2] (setting [4]), the “number of oocytes at GV stage” value is given as 5, the “number of oocytes at MI stage” value worked out at 15 and the “number of oocytes at MII stage” value was 12. For the same compound, the “number of antral follicles (>1 mm diameter)” value in data set [2] (in four ovarian grafts) was 32. For the same compound, the “malignancy in xenografted human ovaries or hosts” value in data set [2] (six months of transplantation, short term exposure) is reported as “No malignancy was found”. Moreover, in data set [2] (versus paired control grafts), the “increase in the number of antral follicles” value is 4 fold and the “increase in the number of mature (MI & MII) oocytes” value worked out at 27 fold. The “increase in nuclear exclusion of Foxo3 versus controls” value in data set [3] is 2 fold. For the same compound, the half-inhibitory concentration (IC50) at PTEN is 31 nM.

With “potassium bisperoxo(bipyridine)oxovanadate (V)”, on PTEN, the IC50 is 18 nM.

Turning to monoperoxo(picolinato)oxovanadate(V), the IC50 in the data set on PTP is 18000 nM.

Take “dipotassium bisperoxo(5-hydroxypyridine-2-carboxyl)oxovanadate (V)”: the IC50 on PTEN was 14 nM.

(Values after US20170051249A1, “MANIPULATION OF OVARIAN PRIMORDIAL FOLLICLES” (The Board of Trustees of the Leland Stanford junior …, priority 2009, published 2017).)
